Assay results taken from PubChem BioAssay AID651883 (Southern Research Specialized Biocontainment Screening …, 2012).

Tested on: VEEV Trinidad donkey virus titer reduction, cell culture
Experiment: VEEV Trinidad donkey titer reduction, cell-based, Trinidad donkey strain (AID 651883)
Conditions: stronger effect = lower value

| Compound | log virus titer change (at 5 µM) | log virus titer change (titer change, at 0.5 µM) | log virus titer change (titer change, at 1 µM) | log virus titer change (titer change, at 2 µM) |
| --- | --- | --- | --- | --- |
| COc1ccc(NC(=O)c2cc([N+](=O)[O-])ccc2N=C2CN(C)CCN2C)cc1 | < -5.95 | < -5.95 | < -5.95 | < -5.95 |
| CCN1CCN(Cc2nc3ccc([N+](=O)[O-])cc3c(=O)n2-c2ccccc2F)CC1 | -5.84 | -0.518 | -2.39 | < -5.95 |
| CN1CCN(C)C(=Nc2ccc([N+](=O)[O-])cc2C(=O)Nc2ccccc2)C1 | < -5.95 | < -5.95 | < -5.95 | < -5.95 |
| CCN1CCN(C)CC1=Nc1ccc([N+](=O)[O-])cc1C(=O)Nc1ccccc1 | < -5.95 | < -5.95 | < -5.95 | < -5.95 |
